From the Kinase Knowledgebase extract (Sharma et al. 2016)

Target: EGFR (human) (UniProt P00533)
Sequence (P00533 whole entry, looked up): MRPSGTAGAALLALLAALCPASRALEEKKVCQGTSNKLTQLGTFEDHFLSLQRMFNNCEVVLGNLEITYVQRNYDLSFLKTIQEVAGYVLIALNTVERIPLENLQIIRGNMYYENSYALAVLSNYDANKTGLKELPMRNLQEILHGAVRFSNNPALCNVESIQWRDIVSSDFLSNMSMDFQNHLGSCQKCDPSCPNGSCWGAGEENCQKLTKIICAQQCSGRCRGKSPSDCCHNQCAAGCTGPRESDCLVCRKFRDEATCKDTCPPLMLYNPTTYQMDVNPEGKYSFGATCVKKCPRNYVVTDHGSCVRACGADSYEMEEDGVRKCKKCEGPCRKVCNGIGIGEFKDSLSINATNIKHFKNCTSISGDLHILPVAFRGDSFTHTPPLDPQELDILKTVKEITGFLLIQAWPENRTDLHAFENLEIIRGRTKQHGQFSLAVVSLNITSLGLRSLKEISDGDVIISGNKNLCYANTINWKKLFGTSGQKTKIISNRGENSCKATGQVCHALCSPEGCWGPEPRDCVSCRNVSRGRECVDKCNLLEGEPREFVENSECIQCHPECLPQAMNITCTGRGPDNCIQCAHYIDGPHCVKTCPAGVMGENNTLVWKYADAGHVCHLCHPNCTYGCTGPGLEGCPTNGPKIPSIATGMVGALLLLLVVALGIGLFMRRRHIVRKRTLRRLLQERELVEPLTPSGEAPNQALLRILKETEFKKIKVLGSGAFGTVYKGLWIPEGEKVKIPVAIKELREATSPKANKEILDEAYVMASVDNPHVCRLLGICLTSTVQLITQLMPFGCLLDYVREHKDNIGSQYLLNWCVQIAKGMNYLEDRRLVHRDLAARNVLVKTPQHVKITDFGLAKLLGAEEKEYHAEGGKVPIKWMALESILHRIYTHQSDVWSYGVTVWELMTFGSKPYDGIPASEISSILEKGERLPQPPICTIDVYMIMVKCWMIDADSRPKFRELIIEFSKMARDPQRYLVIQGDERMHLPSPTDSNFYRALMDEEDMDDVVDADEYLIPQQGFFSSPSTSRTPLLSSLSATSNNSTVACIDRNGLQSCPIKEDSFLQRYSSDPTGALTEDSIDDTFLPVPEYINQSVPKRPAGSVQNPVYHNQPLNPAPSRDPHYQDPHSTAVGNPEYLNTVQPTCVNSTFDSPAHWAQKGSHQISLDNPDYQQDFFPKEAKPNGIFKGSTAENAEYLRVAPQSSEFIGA

Compound	IC50 [nM]
CNC/C=C/C(=O)N1CC[C@@H](n2nc(-c3ccc(C(=O)Nc4cc(C)ccn4)cc3)c3c(N)ncnc32)C1	100 to 1000
Nc1ncnc2c1c(-c1ccc(C(=O)Nc3cc(C(F)(F)F)ccn3)cc1)nn2[C@@H]1CCN(C(=O)/C=C/CNC2CC2)C1	1 to 100
CN(C/C=C/C(=O)N1CC[C@@H](n2nc(-c3ccc(C(=O)Nc4ncc(C5CC5)s4)cc3)c3c(N)ncnc32)C1)C1CC1	< 1
CN(C/C=C/C(=O)N1CC[C@@H](n2nc(-c3ccc(C(=O)Nc4cc(C(F)(F)F)ccn4)cc3)c3c(N)ncnc32)C1)C1CC1	100 to 1000
CN(C/C=C/C(=O)N1CC[C@@H](n2nc(-c3ccc(C(=O)Nc4ccccn4)cc3)c3c(N)ncnc32)C1)C1CC1	100 to 1000
CN(C/C=C/C(=O)N1CC[C@@H](n2nc(-c3ccc(C(=O)Nc4ncc(C#N)s4)cc3)c3c(N)ncnc32)C1)C1CC1	1 to 100
Cc1ccnc(NC(=O)c2ccc(-c3nn([C@H]4CC[C@H](NC(=O)/C=C/CN(C)C5CC5)CC4)c4ncnc(N)c34)cc2)c1	100 to 1000
CN(C/C=C/C(=O)N1CC[C@@H](n2nc(-c3ccc(C(=O)Nc4nccs4)cc3)c3c(N)ncnc32)C1)C1CC1	< 1
CN(C/C=C/C(=O)N1CC[C@@H](n2nc(-c3ccc(C(=O)Nc4ncc(C(F)(F)F)s4)cc3)c3c(N)ncnc32)C1)C1CC1	100 to 1000
CN(C)C/C=C/C(=O)N1CC[C@@H](n2nc(-c3ccc(C(=O)Nc4cc(C#N)ccn4)cc3)c3c(N)ncnc32)C1	100 to 1000
CN(C)C/C=C/C(=O)N1CC[C@@H](n2nc(-c3ccc(C(=O)Nc4cc(C(F)(F)F)ccn4)cc3)c3c(N)ncnc32)C1	100 to 1000
CCCc1ccnc(NC(=O)c2ccc(-c3nn([C@@H]4CCN(C(=O)/C=C/CN(C)C5CC5)C4)c4ncnc(N)c34)cc2)c1	100 to 1000
CNC/C=C/C(=O)N1CC[C@@H](n2nc(-c3ccc(C(=O)Nc4cc(C(F)(F)F)ccn4)cc3)c3c(N)ncnc32)C1	1 to 100
CN(C)C/C=C/C(=O)N1CC[C@@H](n2nc(-c3ccc(C(=O)Nc4ccccn4)cc3)c3c(N)ncnc32)C1	100 to 1000
CCCc1cnc(NC(=O)c2ccc(-c3nn([C@@H]4CCN(C(=O)/C=C/CN(C)C5CC5)C4)c4ncnc(N)c34)cc2)s1	100 to 1000
CN(C/C=C/C(=O)N[C@H]1CC[C@H](n2nc(-c3ccc(C(=O)Nc4cc(C(F)(F)F)ccn4)cc3)c3c(N)ncnc32)CC1)C1CC1	100 to 1000
CC#CC(=O)N[C@H]1CC[C@H](n2nc(-c3ccc(C(=O)Nc4cc(C(F)(F)F)ccn4)cc3)c3c(N)ncnc32)CC1	100 to 1000
CC(C)c1cnc(NC(=O)c2ccc(-c3nn([C@@H]4CCN(C(=O)/C=C/CN(C)C5CC5)C4)c4ncnc(N)c34)cc2)s1	100 to 1000
CC(C)c1ccnc(NC(=O)c2ccc(-c3nn([C@@H]4CCN(C(=O)/C=C/CN(C)C)C4)c4ncnc(N)c34)cc2)c1	100 to 1000
Cc1ccnc(NC(=O)c2ccc(-c3nn([C@@H]4CCN(C(=O)/C=C/CNC5CC5)C4)c4ncnc(N)c34)cc2)c1	100 to 1000
CCc1cnc(NC(=O)c2ccc(-c3nn([C@@H]4CCN(C(=O)/C=C/CN(C)C5CC5)C4)c4ncnc(N)c34)cc2)s1	100 to 1000
Cc1ccnc(NC(=O)c2ccc(-c3nn([C@H]4CC[C@H](NC(=O)/C=C/CN(C)C)CC4)c4ncnc(N)c34)cc2)c1	100 to 1000
CN(C/C=C/C(=O)N1CC[C@@H](n2nc(-c3ccc(C(=O)Nc4ncco4)cc3)c3c(N)ncnc32)C1)C1CC1	> 10
